# Experimental data published in patent US11571485B2, “Peptides and antibodies for detecting changes in alzheimer's disease brain and methods of use thereof” (Sanford Burnham Prebys Medical Discovery Institute, priority 2016, dated 2023).
# “Also recorded” adds a separate entry of the source. Where no end group is shown, it is not given here.
# Tests used:
# [1] = system: AD and WT mouse brain sections; test: Overlay binding of peptide-coated silver nanoparticles on frozen mouse brain sections
# Text: CASPRLSKC recognizes the AD hippocampus in tissue section overlay assay. Silver nanoparticles were coated with the CASPRLSKC peptide or a control peptide and used to overlay brain sections from AD and normal mice. Silver staining was used to visualize binding and nuclei were stained with nuclear fast red. The CASPRLSKC nanoparticles bind to elongated structures that may represent nerve fibers. These structures are not present in the normal brain.
# Binding of DAG conjugated silver nanoparticles on frozen brain sections from AD or WT animals in overlay binding assay was also tested. […] This binding is restricted to the hippocampal region CA1 and the dentate gyms. Frozen coronal sections from AD and WT mice were used for overlay experiments with DAG-AgNPs. Silver staining was used to visualize binding and nuclei were stained with nuclear fast red.
# Silver nanoparticles (AgNPs) with PEG coating and peptide functionality were prepared as reported previously with some modifications (Braun et al., Nature materials 13, 904-911 (2014)). AgNPs of ˜35 nm diameter were synthesized by citrate acid reduction of silver nitrate in solution. First, AgNO3 (450 mg) dissolved in 2.5 L water was stirred and heated to a boil and 50 mL water containing trisodium citrate dihydrate (500 mg, Sigma) was added. After 30 min the solution was cooled to room temperature. The resulting optical density at 405 nm was ˜10. […]
# [2] = system: human iPS cell-derived endothelial cells (ECs) from an AD patient; test: AgNP binding to hiPSC-derived brain endothelial cells; format: cell-based; conditions: for Binding to AD patient iPS cell-derived endothelial cells: AD patient vs normal donor cells
# Text: Human iPS cell-derived from an AD patient and from a normal individual were differentiated into endothelial cells and the cultured cells were used in an overlay assay with DAG-coated and control AgNP.
# The details of human induced pluripotent stem cells (hiPSCs) derived from Alzheimer disease patients with APP duplication, and non-demented control individuals, are described previously (Israel et al., Nature 482, 216-220 (2012)). These hiPSCs were extensively characterized and have been established as an excellent human model for AD. An additional AD hiPSC line generated from dermal fibroblasts from an individual harboring a Presenilinl (PSEN1) mutation (Coriell Institute, Cat #AG06840) was used to further validate the results from the APP lines. hiPSCs were routinely maintained on mouse embryonic fibroblast as described before (Lin et al., Nat Methods 6, 805-808 (2009); Talantova et al., Proc Natl Acad Sci USA 110, E2518-2527 (2013)). Brain microvascular endothelial cells differentiation of hiPSCs was performed using a previously described protocol (Lippmann et al., Nature biotechnology 30, 783-791 (2012), with minor modifications. Briefly, feeder-free cultures of hiPSCs were allowed to spontaneously differentiate in the absence of bFGF for 5-7 days, and then transferred to Endothelial cell (EC) medium composed of human Endothelial Serum-Free Medium™ (Invitrogen) supplemented with 20 ng/ml bFGF and 1% platelet-poor plasma-derived bovine serum (PDS; Biomedical Technologies). After 1-2 days the cells were dissociated with dispase (2 mg/ml) and were plated on 12 well plates coated with a mixture of collagen IV (400 μg/ml) and fibronectin (100 μg/ml). Cells were then cultured in EC medium until they reached confluence, after which they were split and expanded to near 100% purity. BBB-type EC identity was confirmed by flow cytometry or double immunoreactivity to the hallmark efflux transporter p-glycoprotein and other EC markers (CD31, GLUT-1, PECAM, Occludin, and Claudin-5). Furthermore, the capability of these cells to make functional tight junctions and polarized efflux activity was validated using a dual chamber efflux transport assay as described before.
# (§1) Cell binding experiments on U251 cells and hiPSCs were with done using peptide conjugated AgNP. U251 cells were cultured in a 96-well plate. The cells were blocked with 200 μl of 10% FCS in HBSS (Hanks' Balanced Salt Solution from Gibco) for 30 min at 37° C. Following that, DAG-AgNPs (0.5 nM concentration diluted in HBSS) alone or in the presence of free non-labeled peptide (200 μM) were incubated on the cells for 1 hour at 37° C. After washing the unbound AgNP with HBSS three times, the plates were imaged with fluorescent microscopy by looking at intrinsic emission from the FAM tag on the peptide. hiPSCs were cultured in 48 well plate and similar protocol as described above was followed, with the exception that AgNP concentration for incubation was kept at 0.15 nM. Nanoparticle binding was quantified from fluorescence micrographs using ImageJ™ software.
# [3] = system: human astrocytoma U251 cells; test: AgNP binding to U251 cells; format: cell-based
# Protocol: FIG. 7 is a graphical representation showing quantity of DAG-coated silver nanoparticles (DAG-AgNPs) binding to human astrocytoma U251 cells. Cultured U251 cells were incubated with DAG-AgNPs alone, in the presence of free non-labeled control peptide, or an excess of free, non-labeled DAG (both at 200 μM), for 1 hour at 37° C. Nanoparticle binding was quantified from fluorescence micrographs using ImageJ™ software. Scale bar, 20 μm.
# as §1
# human AD brain sections = test: Ex vivo overlay binding to human AD brain sections; conditions: overlay
# Protocol: PFA fixed sections were incubated in PBS for 10 minutes, followed by PBS-Triton-x-100 (0.2%) for 10 minutes. Sections were rinsed with PBST, mounted in a slide holder, and subsequently washed with PBS-T during 12 minutes. Slides were blocked with blocking buffer for 60 minutes at room temperature. Then, peptides were incubated at a concentration of 10 μg/mL dissolved in concentrated blocking buffer, for three hours at room temperature. Sections were then washed with three 4-minute washes of PBS-T, and subsequently fixed with PFA for 10 minutes, followed by three 3-minute washes with PBS-T. Sections were then incubated with primary antibody at 1/200 in diluted blocking buffer overnight at 4° C. Later, sections were washed with three 4-minute washes with PBS-T. Slides were then incubated with secondary antibody at 1/200 dilution in diluted blocking buffer for 30 minutes at room temperature, followed by three 4-minute washes of PBS-T. Sections were then counterstained with DAPI for 5 minutes, washed with PBS-T and mounted.
# Postmortem human brain samples were obtained from the New York Brain Bank at Columbia University, New York. The patient was a person with a diagnosis of AD neuropathologic changes ([A3, B3, C3]). The normal brain tissue was obtained from BioChain Institute Inc. (Newark, Calif.). The donor was a person without any neurologic diagnosis on detailed neuropathologic evaluation. The Parkinson's disease brain tissue was obtained from UCSD Pathology bank. Frozen brain tissue was sectioned for immunohistochemistry and ex vivo overlay binding with FAM-peptides.
substance,measurement,setting,value
"DAG-AgNPs: DAG-coated silver nanoparticles with PEG coating, FAM-cys-x-DAG-NH2 attached (CDAGRKQKC-NH2; not fully specified (N-terminus); also: attached via extra Cys thiol to maleimide-PEG on silver nanoparticles)",Binding to AD brain sections compared to age-matched wild-type brain sections,"[1]; frozen brain sections, overlay binding assay",over 10 fold
same,Binding to hippocampal CA1 region in AD brains versus WT brains,"[1]; frozen coronal sections, hippocampal CA1 region",14 fold
same,Inhibition of AgNP binding by free DAG peptide,[2]; 200 μM free non-labeled DAG,inhibited by the presence of free DAG peptide
same,Binding to AD patient iPS cell-derived endothelial cells,[2],"bind to human iPS cell-derived endothelial cells (ECs) from an AD patient, but not to ECs derived from a normal donor; also recorded: binding to human IPS cell-derived endothelial cells (ECs) from an AD patient, but not to ECs derived from a normal donor"
same,Binding to AD patient iPS cell-derived endothelial cells,[2]; listed as DAG-AgNP,high binding
same,Binding to U251 cells,[3]; 1 hour at 37° C.,"bound robustly to these cells, much more so than non-targeted nanoparticles"
same,Inhibition of binding to U251 cells by free DAG,"[3]; excess free non-labeled DAG, 200 μM","inhibited by co-incubation with an excess of free, non-labeled DAG"
same,Binding to human AD brain sections,human AD brain sections,bind to sections from an AD patient with sporadic AD
